Patent US20180243298A1, “TRPV3 MODULATORS” (AbbVie Inc., priority 2015, published 2018)

Target: T1, human TRPV3 (Homo sapiens, UniProt Q8NET8)
T1 construct: expressed in transfected cells; host or cells: HEK293
T1 sequence (Q8NET8 1-790): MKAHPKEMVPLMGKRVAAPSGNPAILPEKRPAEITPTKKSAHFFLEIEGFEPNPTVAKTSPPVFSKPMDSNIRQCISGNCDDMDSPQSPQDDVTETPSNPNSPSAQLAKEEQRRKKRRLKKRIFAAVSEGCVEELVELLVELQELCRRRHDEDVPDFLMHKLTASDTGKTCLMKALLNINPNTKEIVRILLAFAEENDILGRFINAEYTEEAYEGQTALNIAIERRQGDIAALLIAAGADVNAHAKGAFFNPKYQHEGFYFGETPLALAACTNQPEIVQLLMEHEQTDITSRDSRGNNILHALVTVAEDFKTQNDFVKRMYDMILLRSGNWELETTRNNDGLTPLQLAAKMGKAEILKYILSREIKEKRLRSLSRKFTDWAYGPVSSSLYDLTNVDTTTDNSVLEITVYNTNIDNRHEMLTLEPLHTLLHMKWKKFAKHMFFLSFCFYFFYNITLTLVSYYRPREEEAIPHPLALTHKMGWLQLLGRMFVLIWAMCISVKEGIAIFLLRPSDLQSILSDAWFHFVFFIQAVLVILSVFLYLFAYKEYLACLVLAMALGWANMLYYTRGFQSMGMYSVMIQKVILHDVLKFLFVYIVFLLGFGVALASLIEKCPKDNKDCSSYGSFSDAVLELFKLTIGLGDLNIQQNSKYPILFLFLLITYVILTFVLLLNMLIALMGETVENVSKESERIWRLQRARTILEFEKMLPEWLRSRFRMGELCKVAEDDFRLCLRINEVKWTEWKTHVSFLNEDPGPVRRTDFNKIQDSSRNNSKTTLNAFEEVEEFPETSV
Test: Calcium flux assay (FLIPR TETRA), recombinant HEK293 cells expressing TRPV3, 2-APB response
Type: cell-based
Settings: 2-APB at its EC80
Experimental: (i) In Vitro Methods-Calcium Flux Assays:
Experiments were conducted using the FLIPR TETRA®. On the day prior to the experiment, recombinant HEK293 cells that stably express human and mouse TRPV3 were removed from tissue culture flasks and plated in growth medium at 20,000 cells/well into black-walled clear-bottom 384-well BIOCOAT™ poly-D-lysine assay plates (BD Biosciences, Bedford, Mass.) using a MULTIDROP® dispenser (ThermoScientific, Waltham, Mass.). On the day of the experiment, growth medium was removed, and the no-wash FLIPR® Calcium-4 dye (λEX=470-495 nm, λEM=515-575 nm; Molecular Devices, Sunnyvale, Calif.) was added to each well using the MULTIDROP® dispenser. Cells were incubated for 90-120 minutes in the dark. The compounds were dissolved in DMSO to prepare a 10 mM stock solution. The intensity of the fluorescence was captured and digitally transferred to an interfaced PC. The peak increase in fluorescence over baseline, measured in relative fluorescence units, was calculated and expressed as the percentage of the maximal 2-APB (2-aminoethoxyldiphenyl borate) response (in the absence of compound). The concentration of 2-APB corresponds to its EC80.

| IC50 [µM] | Structure (SMILES) |
| --- | --- |
| 0.5 to 1 | COc1ncnc(OC)c1C(=O)Nc1nc(-c2ccc(F)cn2)cs1 [Example 91, N-[4-(5-fluoropyridin-2-yl)-1,3-thiazol-2-yl]-4,6-dimethoxypyrimidine-5-carboxamide] |
| 0.05 to 0.1 | COc1ncnc(OC)c1C(=O)Nc1nc(C(F)(F)F)c(C2(C)OCCO2)s1 [Example 137, 4,6-dimethoxy-N-[5-(2-methyl-1,3-dioxolan-2-yl)-4-(trifluoromethyl)-1,3-thiazol-2-yl]pyrimidine-5-carboxamide] |
| 0.1 to 0.5 | COc1ncnc(OC)c1C(=O)Nc1nc(C(F)(F)F)c(C#CCO)s1 [Example 12, N-[5-(3-hydroxyprop-1-yn-1-yl)-4-(trifluoromethyl)-1,3-thiazol-2-yl]-4,6-dimethoxypyrimidine-5-carboxamide] |
| < 0.05 | CO/N=C(\C)c1sc(NC(=O)c2c(OC)ncnc2OC)nc1-c1ccc(C(F)(F)F)cn1 [Example 89, 4,6-dimethoxy-N-{5-[(1E)-N-methoxyethanimidoyl]-4-[5-(trifluoromethyl)pyridin-2-yl]-1,3-thiazol-2-yl}pyrimidine-5-carboxamide] |
| < 0.05 | COC/C=C/c1sc(NC(=O)c2c(OC)ncnc2OC)nc1C(F)(F)F [Example 18, 4,6-dimethoxy-N-{5-[(1E)-3-methoxyprop-1-en-1-yl]-4-(trifluoromethyl)-1,3-thiazol-2-yl}pyrimidine-5-carboxamide] |
| < 0.05 | COc1ncnc(OC)c1C(=O)Nc1nc(-c2ccc(OC(F)(F)F)cn2)cs1 [Example 92, 4,6-dimethoxy-N-{4-[5-(trifluoromethoxy)pyridin-2-yl]-1,3-thiazol-2-yl}pyrimidine-5-carboxamide] |
| 0.05 to 0.1 | COc1ncnc(OC)c1C(=O)Nc1nc(C(F)(F)F)c(-c2ccc(F)nc2)s1 [Example 8, N-[5-(6-fluoropyridin-3-yl)-4-(trifluoromethyl)-1,3-thiazol-2-yl]-4,6-dimethoxypyrimidine-5-carboxamide] |
| 0.05 to 0.1 | COc1ncnc(OC)c1C(=O)Nc1nc(-c2ccc(C(F)(F)F)cn2)c(C(C)(C)O)s1 [Example 85, N-{5-(2-hydroxypropan-2-yl)-4-[5-(trifluoromethyl)pyridin-2-yl]-1,3-thiazol-2-yl}-4,6-dimethoxypyrimidine-5-carboxamide] |
| 0.5 to 1 | COc1ncnc(OC)c1C(=O)Nc1nc(CCOc2ccc(F)cc2)cs1 [Example 178, N-{4-[2-(4-fluorophenoxy)ethyl]-1,3-thiazol-2-yl}-4,6-dimethoxypyrimidine-5-carboxamide] |
| < 0.05 | COc1ncnc(OC)c1C(=O)Nc1nc(C(F)(F)F)c(-c2ccc(C(C)(C)C#N)cn2)s1 [Example 158, N-{5-[5-(2-cyanopropan-2-yl)pyridin-2-yl]-4-(trifluoromethyl)-1,3-thiazol-2-yl}-4,6-dimethoxypyrimidine-5-carboxamide] |
| 0.1 to 0.5 | COc1ncnc(OC)c1C(=O)Nc1nc(C(F)(F)F)c(C(O)c2ccccc2)s1 (centres unmarked) [Example 120, N-{5-[hydroxy(phenyl)methyl]-4-(trifluoromethyl)-1,3-thiazol-2-yl}-4,6-dimethoxypyrimidine-5-carboxamide] |

Further lines, the compound ahead of its results:

| Structure (SMILES) | IC50 [µM] |
| --- | --- |
| COc1ncnc(OC)c1C(=O)Nc1nc(C(F)(F)F)c(-c2ccnc(CC#N)c2)s1 [Example 152, N-{5-[2-(cyanomethyl)pyridin-4-yl]-4-(trifluoromethyl)-1,3-thiazol-2-yl}-4,6-dimethoxypyrimidine-5-carboxamide] | 0.1 to 0.5 |
| COc1ncc(-c2sc(NC(=O)c3c(OC)ncnc3OC)nc2C(F)(F)F)cc1C#N [Example 184, N-[5-(5-cyano-6-methoxypyridin-3-yl)-4-(trifluoromethyl)-1,3-thiazol-2-yl]-4,6-dimethoxypyrimidine-5-carboxamide] | < 0.05 |
| COc1ncnc(OC)c1C(=O)Nc1nc(C(F)(F)F)c(C2COC(C)(C)O2)s1 (centres unmarked) [Example 35, N-[5-(2,2-dimethyl-1,3-dioxolan-4-yl)-4-(trifluoromethyl)-1,3-thiazol-2-yl]-4,6-dimethoxypyrimidine-5-carboxamide] | 0.1 to 0.5 |
| COCCCc1sc(NC(=O)c2c(OC)ncnc2OC)nc1C(F)(F)F [Example 16, 4,6-dimethoxy-N-[5-(3-methoxypropyl)-4-(trifluoromethyl)-1,3-thiazol-2-yl]pyrimidine-5-carboxamide] | < 0.05 |
| COc1ncnc(OC)c1C(=O)Nc1nc(-c2ccc(C(F)(F)F)cn2)cs1 [Example 73, 4,6-dimethoxy-N-{4-[5-(trifluoromethyl)pyridin-2-yl]-1,3-thiazol-2-yl}pyrimidine-5-carboxamide] | < 0.05 |
| COc1ncnc(OC)c1C(=O)Nc1nc(-c2ccc(C(F)(F)F)cn2)c(S(=O)(=O)c2ccc(C)cc2)s1 [Example 109, 4,6-dimethoxy-N-[5-(p-tolylsulfonyl)-4-[5-(trifluoromethyl)-2-pyridyl]-1,3-thiazol-2-yl]pyrimidine-5-carboxamide] | 0.1 to 0.5 |
| CCOc1ncnc(OCC)c1C(=O)Nc1nc(C(F)(F)F)c(CC)s1 [Example 71, 4,6-diethoxy-N-[5-ethyl-4-(trifluoromethyl)-1,3-thiazol-2-yl]pyrimidine-5-carboxamide] | < 0.05 |
| COc1ncnc(OC)c1C(=O)Nc1nc(C(F)(F)F)c(CN(C)C(C)(C)C)s1 [Example 55, N-[5-{[tert-butyl(methyl)amino]methyl}-4-(trifluoromethyl)-1,3-thiazol-2-yl]-4,6-dimethoxypyrimidine-5-carboxamide] | 0.1 to 0.5 |
| COc1ncnc(OC)c1C(=O)Nc1nc(C(F)(F)F)c(-c2cnn(C(C)C)c2)s1 [Example 174, 4,6-dimethoxy-N-{5-[1-(propan-2-yl)-1H-pyrazol-4-yl]-4-(trifluoromethyl)-1,3-thiazol-2-yl}pyrimidine-5-carboxamide] | < 0.05 |
| COc1ncnc(OC)c1C(=O)Nc1nc(C(C)(C)C)c(Br)s1 [Example 192, N-(5-bromo-4-tert-butyl-1,3-thiazol-2-yl)-4,6-dimethoxypyrimidine-5-carboxamide] | < 0.05 |
| COCc1sc(NC(=O)c2c(OC)ncnc2OC)nc1C(F)(F)F [Example 206, 4,6-dimethoxy-N-(5-(methoxymethyl)-4-(trifluoromethyl)thiazol-2-yl)pyrimidine-5-carboxamide] | 0.1 to 0.5 |
| COCc1sc(NC(=O)c2c(OC)ncnc2OC)nc1-c1ccc(C(F)(F)F)cn1 [Example 86, 4,6-dimethoxy-N-{5-(methoxymethyl)-4-[5-(trifluoromethyl)pyridin-2-yl]-1,3-thiazol-2-yl}pyrimidine-5-carboxamide] | < 0.05 |
| COc1ncnc(OC)c1C(=O)Nc1nc(C(F)(F)F)c(-c2cccc(F)n2)s1 [Example 153, N-[5-(6-fluoropyridin-2-yl)-4-(trifluoromethyl)-1,3-thiazol-2-yl]-4,6-dimethoxypyrimidine-5-carboxamide] | < 0.05 |
| COc1ncnc(OC)c1C(=O)Nc1nc(C2CCC2)c(C#N)s1 [Example 102, N-(5-cyano-4-cyclobutyl-1,3-thiazol-2-yl)-4,6-dimethoxypyrimidine-5-carboxamide] | 0.1 to 0.5 |
| COc1ncnc(OC)c1C(=O)Nc1nc(C(F)(F)F)c(C2(O)CCOCC2)s1 [Example 117, N-[5-(4-hydroxytetrahydro-2H-pyran-4-yl)-4-(trifluoromethyl)-1,3-thiazol-2-yl]-4,6-dimethoxypyrimidine-5-carboxamide] | > 1 |
| COc1ncnc(OC)c1C(=O)Nc1nc(C(F)(F)F)c(C#CC2CC2)s1 [Example 14, N-[5-(cyclopropylethynyl)-4-(trifluoromethyl)-1,3-thiazol-2-yl]-4,6-dimethoxypyrimidine-5-carboxamide] | < 0.05 |
| COc1ncnc(OC)c1C(=O)Nc1nc(C(F)(F)F)c(N2CCOCC2)s1 [Example 32, 4,6-dimethoxy-N-[5-(morpholin-4-yl)-4-(trifluoromethyl)-1,3-thiazol-2-yl]pyrimidine-5-carboxamide] | 0.1 to 0.5 |
| CCc1sc(NC(=O)c2c(OC)ncnc2OC)nc1C(F)(F)F [Example 6, N-[5-ethyl-4-(trifluoromethyl)-1,3-thiazol-2-yl]-4,6-dimethoxypyrimidine-5-carboxamide] | < 0.05 |
